Reference: patent US9958433B2, “Method and system for in vitro developmental toxicity testing” (Agency for Science, Technology and Research, priority 2012, dated 2018)
Where two headings read alike, the source gives them in different places.

Legend:
[1] = test system: micropatterned hESC colonies; test: Micropatterned hESC mesoendoderm pattern disruption (Brachyury immunofluorescence, Asymmetrical Ratio); conditions: for Asymmetrical Ratio decrease relative to untreated control: 3 days of differentiation, control ratio 3; for Asymmetrical Ratio after treatment (average intensity ratio of ring area to off-ring area): human, 3 days
Description: In order to generate gradients of mechanical stress, circle or square shapes of Matrigel matrix with two different sizes (785000 μm2 or 196250 μm2) were designed using AutoCAD software. Then polydimethylsiloxane (PDMS) stencils were fabricated by using a laser-cutter (Universal Laser System) to cut the designated shape patterns on a 127 μm thick PDMS sheet (Specialty Silicone Products Inc.) and then bonding it to a laser-cut, 2 mm thick PDMS gasket. For cell patterning, the PDMS stencil was first sealed into a 60 mm petri dish by adding 200 μl 70% ethanol and dried in the tissue culture hood, then Matrigel™ (BD Biosciences) matrix was coated by at least hour incubation with the Matrigel™ solution (FIG. 1). Thereafter cells were seeded at a density of 4 million cells/ml. After 1 hour incubation for cell attachment, the stencil and excess unattached cells were removed. The surface was then passivated with 0.5% pluronic acid for 10 mins before 3-time washing. The acquired patterned hESC were incubated overnight in mTesR1 maintenance medium (StemCell Technologies) for stabilization and the mesoendoderm induction was started the next day.
The differentiation of patterned hESC colonies were induced by mesoendoderm induction medium, which comprises of 100 ng/ml Activin, 25 ng/ml BMP4 and 10 ng/ml FGF2 in basal serum-free APEL™ medium (STEMdiff™, StemCell Technologies). For developmental toxicity testing, the patterned hESC colonies were cultured in mesoendoderm induction medium together with the test chemical. The induction lasted 3 days and the medium is half changed daily with/without the test chemical.
Samples were fixed on Day 3 of differentiation. Immunofluorescence staining was done to check the expression distribution of early mesoendodermal marker Brachyury. Image acquisition was done under 10× objective using Olympus fluorescence microscope and Asymmetrical Ratio was calculated using MATLAB programming (FIG. 5). Results
Three known teratogens (0.1 mM Valproic acid (VPA), 0.05 ug/ml 5-Fluorouracil (5-FU), and 0.8 mM Thalidomide) were tested using this model. Mesoendoderm induction medium together with the drug was added into our model and incubated for 3 days before the samples were fixed for immunofluorescence staining of Brachyury. Half of the medium was changed daily with the drug. An untreated control which was only cultured in mesoendoderm induction medium without any drug was also done. […] In order to measure the disruption, we used Asymmetrical Ratio as a parameter to evaluate the asymmetrical patterns with or without drug treatment, which indicate the average intensity ratio of “ring” area to “off-ring” area (FIG. 5).

[2] = test system: μP-hESC colonies; test: PCA of morphological features of mesoendoderm motif in μP-hESC colonies (dose-dependent developmental toxicity)
Method: Alterations to the different morphological features of the mesoendoderm structural motif were quantitatively measured by image processing at different concentrations of drugs. These morphological features at different drug concentrations were analyzed with principal component analysis (PCA). A data point represents each morphological feature; the data point color represents the drug concentration used in the treatment. […] Data Collection Process: 1. Treat our μP-hESC colonies with 3 different concentrations of each drug and fix the samples on day 3 together with the untreated normal control samples. Acquire T immunofluorescence images of samples under Olympus fluorescence microscope. 2. Process all the T fluorescence images using Matlab to extract all the relevant morphological features of the samples representing the spatial distribution of the mesoendoderm motif (T^+ positive region in the images).

[3] = test system: μP-hESC colony; test: Live imaging / kymograph of collective cell migration in μP-hESC colony under drug treatment; assay type: cell-based, human
Description: Spatially localized differentiated cells (at edge of stem cell colony) underwent coordinated cell movement to form a 3D-like structural motif as observed by live imaging (FIG. 8D). The trajectory of the coordinated cell movement can be seen from a space-time plot (kymograph) of the differentiating stem cells (FIG. 8E).

[4] = test system: adult human dermal fibroblasts (aHDFs); test: Cytotoxicity test (MTS) on adult fibroblasts; conditions: at the drug's effective concentration (EC)
[5] = test system: hESC cell line H9; test: Cytotoxicity test (MTS) on hESC; conditions: at the drug's effective concentration (EC)
[6] = test system: human; conditions: cited from earlier work
[7] = test system: hESC cell line H9
[8] = test system: adult human dermal fibroblasts (aHDFs)

## O=c1[nH]cc(F)c(=O)[nH]1 [5-FU, 5-Fluorouracil]
[1]; 0.05 μg/ml 5-FU
  Asymmetrical Ratio decrease relative to untreated control: 46.7%
[1]; 0.05 μg/ml
  Asymmetrical Ratio after treatment (average intensity ratio of ring area to off-ring area): 1.6

## CC1(C)S[C@@H]2[C@H](NC(=O)Cc3ccccc3)C(=O)N2[C@H]1C(=O)O [Penicillin G]
[2]; 3 concentrations of each drug, day 3
  PCA clustering of morphological features by drug concentration: cannot be segregated
[2]; based on PCA and cytotoxicity test (MTS) results
  Drug classification by developmental toxicity effect: non-developmental toxic
[2]; day 3, μP-hESC colonies
  Concentrations at which spatial distribution of mesoendoderm motif was significantly disrupted (PCA): > 1000 µg/mL
[2]; μP-hESC models
  Effective concentration (lowest concentration which significantly disrupted spatial localization of mesoendoderm motif): above 1000 μg/ml
[3]; day2-3 of differentiation
  Trajectories of collective cell migration (kymograph): unaffected
[1]; day3, FIG. 9B
  Localization of the mesoendoderm motif (T+ region): remained unchanged

## CC1=C(/C=C/C(C)=C/C=C/C(C)=C/C(=O)O)C(C)(C)CCC1 [RA, retinoic acid]
[2]
  Drug classification by developmental toxicity effect: teratogenic
[2]; human, 3 days
  Concentrations at which spatial distribution of mesoendoderm motif was significantly disrupted (PCA): >= 0.0036 μg/ml
  Effective concentration (lowest concentration which significantly disrupted spatial localization of mesoendoderm motif): ~0.0036 µg/mL
[4]
  Toxicity to aHDFs: not toxic
[5]
  Toxicity to H9 cells: not toxic

## O=C1CCC(N2C(=O)c3ccccc3C2=O)C(=O)N1 (stereo not shown) [Thalidomide]
[2]
  Drug classification by developmental toxicity effect: both teratogenic and embryotoxic
[2]; human, 3 days
  Concentrations at which spatial distribution of mesoendoderm motif was significantly disrupted (PCA): >= 300 μM
  Effective concentration (lowest concentration which significantly disrupted spatial localization of mesoendoderm motif): ~300 µM
[3]
  Trajectories of collective cell migration (kymograph): disrupted
[4]
  Toxicity to aHDFs: not toxic
[5]
  H9 cell survival: > 50%
  Toxicity to H9 cells: toxic
[6]
  Developmental deformation: causes developmental deformation in human
[1]
  Localization of the mesoendoderm motif (T+ region): misplaced
[1]; 0.8 mM Thalidomide
  Asymmetrical Ratio decrease relative to untreated control: ~70%
[1]; 0.8 mM
  Asymmetrical Ratio after treatment (average intensity ratio of ring area to off-ring area): ~0.9

## CCCC(CCC)C(=O)O [VPA, Valproic acid]
[2]
  Drug classification by developmental toxicity effect: very embryotoxic
[2]; human, 3 days
  Concentrations at which spatial distribution of mesoendoderm motif was significantly disrupted (PCA): >= 0.8 mM
  Effective concentration (lowest concentration which significantly disrupted spatial localization of mesoendoderm motif): ~800 µM
[3]
  Trajectories of collective cell migration (kymograph): disrupted
[7]
  Toxicity to H9 cells: very toxic
[7]; human
  H9 cell survival: ~20%
[8]
  Toxicity to aHDFs: a little toxic
[1]
  Localization of the mesoendoderm motif (T+ region): misplaced
[1]; 0.1 mM VPA
  Asymmetrical Ratio decrease relative to untreated control: ~70%
[1]; 0.1 mM
  Asymmetrical Ratio after treatment (average intensity ratio of ring area to off-ring area): ~0.9
